Tests used:
[1] = Inhibition of NF-kappaB-mediated gene transcription expressed in TNF-alpha-stimulated human HeLa cells co-transfected with renilla luciferase-TK gene preincubated for 30 mins before TNFalpha challenge measured after 8 hrs by dual-glo luciferase reporter gene assay; type: cell-based
HeLa [2] = assay: Cell cycle arrest in TNF-alpha-stimulated human HeLa cells transfected with NFkappaB-Luc assessed as accumulation at G2/G1 phase at 0.1 uM after 8 hrs by using propidium iodide staining by FACS analysis; type: functional
[3] = Cytotoxicity against human whole blood lymphocytes assessed as survival cell count in millions at 1 uM after 24 hrs by trypan blue staining-based hemocytometry
HeLa [4] = assay: Cell cycle arrest in TNF-alpha-stimulated human HeLa cells transfected with NFkappaB-Luc assessed as accumulation at diploid stage at 10 uM after 8 hrs by using propidium iodide staining by FACS analysis; type: functional
HeLa [5] = assay: Cell cycle arrest in TNF-alpha-stimulated human HeLa cells transfected with NFkappaB-Luc assessed as accumulation at diploid stage at 1 uM after 8 hrs by using propidium iodide staining by FACS analysis; type: functional
[6] = Cytotoxicity against human whole blood lymphocytes assessed as survival cell count in millions at 3 uM after 24 hrs by trypan blue staining-based hemocytometry
[7] = Cytotoxicity against IL-1-beta-stimulated human whole blood lymphocytes assessed as survival cell count in millions at 10 uM after 24 hrs by trypan blue staining-based hemocytometry
HeLa [8] = assay: Cell cycle arrest in TNF-alpha-stimulated human HeLa cells transfected with NFkappaB-Luc assessed as accumulation at total S phase at 20 uM after 8 hrs by using propidium iodide staining by FACS analysis; type: functional
HeLa [9] = assay: Cell cycle arrest in TNF-alpha-stimulated human HeLa cells transfected with NFkappaB-Luc assessed as accumulation at diploid stage at 0.05 uM after 8 hrs by using propidium iodide staining by FACS analysis; type: functional
HeLa [10] = assay: Cell cycle arrest in TNF-alpha-stimulated human HeLa cells transfected with NFkappaB-Luc assessed as accumulation at G2/G1 phase at 1 uM after 8 hrs by using propidium iodide staining by FACS analysis; type: functional
HeLa [11] = assay: Cell cycle arrest in TNF-alpha-stimulated human HeLa cells transfected with NFkappaB-Luc assessed as accumulation at G2/G1 phase at 5 uM after 8 hrs by using propidium iodide staining by FACS analysis; type: functional
HeLa [12] = assay: Cell cycle arrest in TNF-alpha-stimulated human HeLa cells transfected with NFkappaB-Luc assessed as accumulation at total S phase at 5 uM after 8 hrs by using propidium iodide staining by FACS analysis; type: functional
HeLa [13] = assay: Cell cycle arrest in TNF-alpha-stimulated human HeLa cells transfected with NFkappaB-Luc assessed as accumulation at diploid G2 phase at 1 uM after 8 hrs by using propidium iodide staining by FACS analysis; type: functional
HeLa [14] = assay: Cell cycle arrest in TNF-alpha-stimulated human HeLa cells transfected with NFkappaB-Luc assessed as accumulation at diploid stage at 0.5 uM after 8 hrs by using propidium iodide staining by FACS analysis; type: functional
HeLa [15] = assay: Effect on cell cycle arrest in TNF-alpha-stimulated human HeLa cells transfected with NFkappaB-Luc assessed as cell debris level at 0.5 uM after 8 hrs by using propidium iodide staining by FACS analysis; type: functional
HeLa [16] = assay: Cell cycle arrest in human HeLa cells transfected with NFkappaB-Luc assessed as accumulation at diploid stage at 20 uM after 8 hrs by using propidium iodide staining by FACS analysis; type: functional
HeLa [17] = assay: Cell cycle arrest in TNF-alpha-stimulated human HeLa cells transfected with NFkappaB-Luc assessed as accumulation at diploid G2 phase at 0.5 uM after 8 hrs by using propidium iodide staining by FACS analysis; type: functional
HeLa [18] = assay: Cell cycle arrest in TNF-alpha-stimulated human HeLa cells transfected with NFkappaB-Luc assessed as accumulation at diploid S phase at 5 uM after 8 hrs by using propidium iodide staining by FACS analysis; type: functional
HeLa [19] = assay: Cell cycle arrest in human HeLa cells transfected with NFkappaB-Luc assessed as accumulation at diploid G2 phase at 20 uM after 8 hrs by using propidium iodide staining by FACS analysis; type: functional
HeLa [20] = assay: Effect on cell cycle arrest in TNF-alpha-stimulated human HeLa cells transfected with NFkappaB-Luc assessed as total background cell aggregate and debris level at 1 uM after 8 hrs by using propidium iodide staining by FACS analysis; type: functional
HeLa [21] = assay: Effect on cell cycle arrest in TNF-alpha-stimulated human HeLa cells transfected with NFkappaB-Luc assessed as cell debris level at 10 uM after 8 hrs by using propidium iodide staining by FACS analysis; type: functional

## CCOC(=O)[C@]1(c2ccccc2)N=C(c2ccccc2)N(Cc2ccccc2)[C@@H]1c1ccccc1 (racemic)
[1]
  EC50: 4.67 µM
HeLa [2]
  Activity: 1.92%
[3]
  Activity: 0.8 mL⁻¹
HeLa [4]
  Activity: 100%
HeLa [5]
  Activity: 100%
[6]
  Activity: 0.86 mL⁻¹
[7]
  Activity: 0.92 mL⁻¹
HeLa [8]
  Activity: 19.29%
HeLa [9]
  Activity: 100%
HeLa [10]
  Activity: 1.91%
HeLa [11]
  Activity: 1.91%
HeLa [12]
  Activity: 19.8%
HeLa [13]
  Activity: 13.88%
HeLa [14]
  Activity: 100%
HeLa [15]
  Activity: 3.68%
HeLa [16]
  Activity: 100%
HeLa [17]
  Activity: 13.4%
HeLa [18]
  Activity: 19.8%
HeLa [19]
  Activity: 13.33%
HeLa [20]
  Activity: 1.87%
HeLa [21]
  Activity: 15.28%

— ChEMBL document CHEMBL1138438, “Structural-activity relationship study of highly-functionalized imidazolines as potent inhibitors of nuclear transcription factor-kappaB mediated IL-6 production” (Bioorg Med Chem, 2009)
